{"source": "paper PMC5618421", "about": "“Anti-Inflammatory Effects of Curvularin-Type Metabolites from a Marine-Derived Fungal Strain Penicillium sp. SF-5859 in Lipopolysaccharide-Induced RAW264.7 Macrophages” (Marine Drugs, 2017)", "origin": "cited, not measured here", "test_system": "p97", "set-up": "method as in PMID 27223265", "settings": "interfering with its ATPase activity; cited from earlier work"}
{"molecule": "C[C@H]1CCC/C=C/C(=O)c2c(O)cc(O)cc2CC(=O)O1", "note": "[Compound 8, (10E,15S)-10,11-dehydrocurvularin]", "values": [{"measurement": "inhibition of p97", "result": "covalent inhibitor of p97"}]}
